Results as given in patent US20250368923A1, “PRE-MOISTENED ARTICLES FOR REFRESHING CLOTHING IN THE DRYER” (The Clorox Company, priority 2024, published 2025).
Where two headings read alike, the source gives them in different places.

What was measured:
[1] = cited from earlier work
[2] = pKa and acid-form fraction of lactic acid; format: physicochemical; conditions: pH of 2.2
From the text: In some example embodiments of formulations including an allergen neutralizing agent, the pH of the formulations can be kept low. A low pH can enhance the organic acid efficacy (e.g., lactic acid efficacy) in neutralization of airborne allergens. Typically, pH is kept a least 1 unit below pKa of the organic acid to ensure the majority (e.g., at least 90%) of acid stays in the active (conjugate acid) form. […].

| SMILES | Solubility in water (g of compound in 100 g of water at ~20° C.) ([1]; ~20° C.) | also measured |
| --- | --- | --- |
| C/C=C/C=C/C(=O)O [sorbic acid] | 0.156 g of compound in 100 g of water |  |
| CCCCC(=O)O [valeric acid] | 3.75 g of compound in 100 g of water |  |
| O=C(O)/C=C/C(=O)O [fumaric acid] | 0.7 g of compound in 100 g of water |  |
| CC(=O)CCC(=O)O [levulinic acid] | 79.13 g of compound in 100 g of water |  |
| CCCCCCC(=O)O [heptanoic acid] | 0.2 g of compound in 100 g of water |  |
| CC(=O)C(=O)O [pyruvic acid] | 100 g of compound in 100 g of water |  |
| CCCCCC(=O)O [hexanoic acid] |  | Solubility in water (g of compound in 100 g of water at ~20° C.) [1]: 1.03 g of compound in 100 g of water |
| CC(O)C(=O)O (centres unmarked) [lactic acid] |  | fraction of lactic acid in the acidic form [2]: at least 95% |
| O=C(O)/C=C\C(=O)O [maleic acid] | 47.88 g of compound in 100 g of water |  |
| O=C(O)CC(O)C(=O)O (centres unmarked) [malic acid] | 64.7 g of compound in 100 g of water |  |
| CS(=O)(=O)O [methane sulfonic acid] | 100 g of compound in 100 g of water |  |
